# From PubChem BioAssay AID2060905 (Molecular Pharmacology Branch, DTP, NCI, 2025)
# Test system: 282377-053-R-J1-PDC complex spheroid viability
# Assay: Anticancer human tumor 282377-053-R-J1-PDC patient-derived colon adenocarcinoma cell line growth inhibition [RAS]
# Details: for IC50: curve of first compound; for viability, T/C: stronger effect = lower value
# How it was run: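 Multi-cell-type spheroids: tumor cells plus HUVEC endothelial cells and mesenchymal stem cells. RAS-pathway inhibitors were combined with targeted agents, each dosed in half-log steps down from clinical Cmax, or from 10 microM when Cmax was unknown.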
# [1] = second compound 0.000949 µM, first compound 0.0316 µM
# [2] = second compound 0.000949 µM, first compound 0.1 µM
# [3] = second compound 0.000949 µM, first compound 0.316 µM
# [4] = second compound 0.000949 µM, first compound 1 µM
# [5] = second compound 0.003 µM, first compound 0.0316 µM
# [6] = second compound 0.003 µM, first compound 0.1 µM
# [7] = second compound 0.003 µM, first compound 0.316 µM
# [8] = second compound 0.003 µM, first compound 1 µM
# [9] = second compound 0.00949 µM, first compound 0.0316 µM
# [10] = second compound 0.00949 µM, first compound 0.1 µM
# [11] = second compound 0.00949 µM, first compound 0.316 µM
# [12] = second compound 0.00949 µM, first compound 1 µM
# [13] = second compound 0.03 µM, first compound 0.0316 µM
# [14] = second compound 0.03 µM, first compound 0.1 µM
# [15] = second compound 0.03 µM, first compound 0.316 µM
# [16] = second compound 0.03 µM, first compound 1 µM
# [17] = second compound 0.0949 µM, first compound 0.0316 µM
# [18] = second compound 0.0949 µM, first compound 0.1 µM
# [19] = second compound 0.0949 µM, first compound 0.316 µM
# [20] = second compound 0.0949 µM, first compound 1 µM
# [21] = second compound 0.3 µM, first compound 0.0316 µM
# [22] = second compound 0.3 µM, first compound 0.1 µM
# [23] = second compound 0.3 µM, first compound 0.316 µM
# [24] = second compound 0.3 µM, first compound 1 µM
# 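Note: spheroids exposed to agents for seven days before readout.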
# 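Throughout, for viability, T/C: luminescence viability as percent of DMSO vehicle control wells.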
structure (smiles),measurement,setting,value
CC(=O)OC12COC1CC(O)C1(C)C(=O)C(O)C3=C(C)C(OC(=O)C(O)C(NC(=O)OC(C)(C)C)c4ccccc4)CC(O)(C(OC(=O)c4ccccc4)C21)C3(C)C (centres undefined) + CCn1c(-c2cc(N3CCN(C)CC3)cnc2C(C)OC)c2c3cc(ccc31)-c1csc(n1)CC(NC(=O)C1CC1C)C(=O)N1CCCC(N1)C(=O)OCC(C)(C)C2,IC50,second compound 0.000949 µM,< 31.6 nM
same,IC50,second compound 0.003 µM,< 31.6 nM
same,IC50,second compound 0.00949 µM,< 31.6 nM
same,IC50,second compound 0.03 µM,< 31.6 nM
same,IC50,second compound 0.0949 µM,< 31.6 nM
same,IC50,second compound 0.3 µM,< 31.6 nM
same,"viability, T/C",[1],41.2%
same,"viability, T/C",[2],48.6%
same,"viability, T/C",[3],44.2%
same,"viability, T/C",[4],52%
same,"viability, T/C","second compound 0.000949 µM, first compound 3.16 µM",61%
same,"viability, T/C","second compound 0.000949 µM, first compound 10 µM",97.3%
same,"viability, T/C",[5],50.1%
same,"viability, T/C",[6],38.4%
same,"viability, T/C",[7],45.5%
same,"viability, T/C",[8],55.2%
same,"viability, T/C","second compound 0.003 µM, first compound 3.16 µM",52.2%
same,"viability, T/C","second compound 0.003 µM, first compound 10 µM",83.2%
same,"viability, T/C",[9],50.1%
same,"viability, T/C",[10],42.6%
same,"viability, T/C",[11],52.5%
same,"viability, T/C",[12],38.7%
same,"viability, T/C","second compound 0.00949 µM, first compound 3.16 µM",72.2%
same,"viability, T/C","second compound 0.00949 µM, first compound 10 µM",91.9%
same,"viability, T/C",[13],36.1%
same,"viability, T/C",[14],46%
same,"viability, T/C",[15],41.9%
same,"viability, T/C",[16],58.2%
same,"viability, T/C","second compound 0.03 µM, first compound 3.16 µM",60.5%
same,"viability, T/C","second compound 0.03 µM, first compound 10 µM",96.2%
same,"viability, T/C",[17],42%
same,"viability, T/C",[18],49.4%
same,"viability, T/C",[19],46.3%
same,"viability, T/C",[20],40.2%
same,"viability, T/C","second compound 0.0949 µM, first compound 3.16 µM",77.5%
same,"viability, T/C","second compound 0.0949 µM, first compound 10 µM",77.6%
same,"viability, T/C",[21],43.1%
same,"viability, T/C",[22],54.1%
same,"viability, T/C",[23],47.9%
same,"viability, T/C",[24],56.3%
same,"viability, T/C","second compound 0.3 µM, first compound 3.16 µM",79.6%
same,"viability, T/C","second compound 0.3 µM, first compound 10 µM",100%
Nc1ccn(C2OC(CO)C(O)C2(F)F)c(=O)n1 (centres undefined) + CCn1c(-c2cc(N3CCN(C)CC3)cnc2C(C)OC)c2c3cc(ccc31)-c1csc(n1)CC(NC(=O)C1CC1C)C(=O)N1CCCC(N1)C(=O)OCC(C)(C)C2,IC50,second compound 0.000949 µM,> 1000 nM
same,IC50,second compound 0.003 µM,> 1000 nM
same,IC50,second compound 0.00949 µM,> 1000 nM
same,IC50,second compound 0.03 µM,> 1000 nM
same,IC50,second compound 0.0949 µM,> 1000 nM
same,IC50,second compound 0.3 µM,> 1000 nM
same,"viability, T/C","second compound 0.000949 µM, first compound 0.00316 µM",107%
same,"viability, T/C","second compound 0.000949 µM, first compound 0.01 µM",95.1%
same,"viability, T/C",[1],120%
same,"viability, T/C",[2],107%
same,"viability, T/C",[3],101%
same,"viability, T/C",[4],66.8%
same,"viability, T/C","second compound 0.003 µM, first compound 0.00316 µM",90%
same,"viability, T/C","second compound 0.003 µM, first compound 0.01 µM",110%
same,"viability, T/C",[5],106%
same,"viability, T/C",[6],111%
same,"viability, T/C",[7],93.8%
same,"viability, T/C",[8],64.6%
same,"viability, T/C","second compound 0.00949 µM, first compound 0.00316 µM",116%
same,"viability, T/C","second compound 0.00949 µM, first compound 0.01 µM",95.9%
same,"viability, T/C",[9],129%
same,"viability, T/C",[10],107%
same,"viability, T/C",[11],96.4%
same,"viability, T/C",[12],69%
same,"viability, T/C","second compound 0.03 µM, first compound 0.00316 µM",104%
same,"viability, T/C","second compound 0.03 µM, first compound 0.01 µM",100%
same,"viability, T/C",[13],108%
same,"viability, T/C",[14],115%
same,"viability, T/C",[15],86.7%
same,"viability, T/C",[16],71.5%
same,"viability, T/C","second compound 0.0949 µM, first compound 0.00316 µM",104%
same,"viability, T/C","second compound 0.0949 µM, first compound 0.01 µM",95.2%
same,"viability, T/C",[17],100%
same,"viability, T/C",[18],106%
same,"viability, T/C",[19],123%
same,"viability, T/C",[20],72.5%
same,"viability, T/C","second compound 0.3 µM, first compound 0.00316 µM",120%
same,"viability, T/C","second compound 0.3 µM, first compound 0.01 µM",94.2%
same,"viability, T/C",[21],129%
same,"viability, T/C",[22],131%
same,"viability, T/C",[23],118%
same,"viability, T/C",[24],108%
